The source of these data is patent publication US11186576B2, “Pyrazolo[1,5-A][1,3,5]triazine and pyrazolo[1,5-A]pyrimidine derivatives as CDK inhibitors” (Aurigene Discovery Technologies Limited, priority 2015, dated 2021).

Test [1] has as its system RNA polymerase II CTD phosphorylation (MDA-MB-231/NCI-H358 cells). Kind of test: Inhibition of RNA polymerase II CTD phosphorylation in cell western assay. Format: cell-based. Conditions: 4 hours incubation, phospho RNA Pol II Ser-5 or Ser-2. The method, then:
25000 cells (MDA-MB-231/NCI-H358) were seeded in 96 well black clear bottom plate incubated for overnight before addition of selected compound. 3 fold dilutions of selected compound diluted in DMSO starting from 10 μM, added to cells and incubated for 4 hours at 37° C., 5% CO2 incubator. Cells were washed once with 100 μl of phosphate buffered saline (sigma #P3813), then fixed with 100 μl/well of 4% Para formaldehyde for 60 min at room temperature, in dark. The cells were washed 3 times with 100 μl of wash buffer (PBS with 0.1% Triton-X-100), later blocked for 2 hours at room temperature in blocking buffer (5% BSA in PBST). Cells were stained overnight at 4° C. with Phospho RNA Pol II (S5) (Millipore #04-1572, Abcam #5131) or Phospho RNA Pol II (Ser-2), antibody (Bethyl labs #A300-654-A) in blocking buffer. Post incubation cells were washed with Delifia wash buffer (Perkin Elmer #4010-0010). Cells were treated with LANCE secondary antibodies (LANCE® Eu-W1024 perkin elmer #AD-0076 for phospho Ser-5 CTD RNA pol-II and Delfia Eu-N1 anti rabbit IgG Perkin elmer #AD0106 for phospho Ser-2 CTD RNA pol-II) for 2 hours in assay buffer (Perkin Elmer #1244-111), Cells were washed 3 times with Delfia wash buffer post incubation, Enhancement solution (Perkin Elmer #1244-105) added and incubated for 20 mins. Europium readings were taken in Victor-3 instrument. Cell normalization was done using Hoechst dye (0.5 μg/ml).
Selected compounds were screened in the above mentioned assay procedure. The EC50 values are summarised in the below table; wherein group “A” refers to an EC50 value of less than or equal to 1 μM, group “B” refers to EC50 value in range of 1 to 10 μM and group “C” refers to EC50 value of greater than 10 μM.

In a further test the target is CDK7/CycH/MNAT1 (Homo sapiens (Human), UniProt P50613). Kind of test: Biochemical assay for CDK7 (TR-FRET kinase assay). The note with it: 60 min pre-incubation, 1 mM ATP; for inhibition at 10 µM: 10 μM compound, read-out: % inhibition @ 10 μM; for IC50: read-out: IC50. Put shortly: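 CDK7/CycH/MNAT1 (5 nM) was preincubated with compound for 60 min at room temperature, then reacted for 60 min with 100 nM ULight-MBP and 1 mM ATP in 1% DMSO. Irreversibility was probed with 20, 60 and 180 min preincubations.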
(In general: Time-resolved FRET reads energy transfer from a long-lived donor to a nearby acceptor.)

Bounds are passed on as bounds.

Chain of CDK7/CycH/MNAT1 (P50613 whole entry): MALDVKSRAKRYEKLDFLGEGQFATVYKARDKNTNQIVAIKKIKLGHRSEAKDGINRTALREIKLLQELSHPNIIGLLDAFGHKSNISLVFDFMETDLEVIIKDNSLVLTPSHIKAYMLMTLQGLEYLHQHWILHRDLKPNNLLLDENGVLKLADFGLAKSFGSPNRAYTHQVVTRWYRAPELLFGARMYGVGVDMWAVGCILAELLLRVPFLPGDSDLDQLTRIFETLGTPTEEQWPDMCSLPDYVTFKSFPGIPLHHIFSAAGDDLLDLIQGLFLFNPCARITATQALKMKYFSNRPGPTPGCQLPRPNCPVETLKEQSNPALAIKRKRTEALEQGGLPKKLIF
Chain of CDK7/CycH/MNAT1 (P51946 whole entry partner): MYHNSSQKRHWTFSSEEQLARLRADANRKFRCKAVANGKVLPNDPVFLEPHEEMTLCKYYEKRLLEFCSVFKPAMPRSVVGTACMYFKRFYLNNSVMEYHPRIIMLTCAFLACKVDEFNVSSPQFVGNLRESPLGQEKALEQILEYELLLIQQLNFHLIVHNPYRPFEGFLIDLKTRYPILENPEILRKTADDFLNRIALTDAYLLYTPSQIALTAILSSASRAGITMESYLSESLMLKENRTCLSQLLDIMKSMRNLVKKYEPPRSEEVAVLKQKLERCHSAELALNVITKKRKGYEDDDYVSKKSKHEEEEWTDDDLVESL
Chain of CDK7/CycH/MNAT1 (P51948 whole entry partner): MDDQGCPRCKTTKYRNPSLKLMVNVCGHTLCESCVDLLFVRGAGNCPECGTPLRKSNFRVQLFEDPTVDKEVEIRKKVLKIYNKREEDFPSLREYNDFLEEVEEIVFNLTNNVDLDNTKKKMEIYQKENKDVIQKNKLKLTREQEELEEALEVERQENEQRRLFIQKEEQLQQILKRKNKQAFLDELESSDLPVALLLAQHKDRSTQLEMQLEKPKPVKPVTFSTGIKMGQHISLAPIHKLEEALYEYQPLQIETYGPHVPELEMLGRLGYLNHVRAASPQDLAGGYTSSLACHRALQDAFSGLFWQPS

As to `C=CC(=O)N1CCCC(C(=O)Nc2cccc(CNc3nc(NC4CCOCC4)nc4c(C(C)C)cnn34)c2)C1` (stereo not drawn) [Compound 1, 1-acryloyl-N-(3-(((8-isopropyl-2-((tetrahydro-2H-pyran-4-yl)amino)pyrazolo[1,5-a][1,3,5]triazin-4-yl)amino)methyl)phenyl)piperidine-3-carboxamide], the EC50 (usually the concentration needed to bring the measured effect to its halfway point) in test [1] was at most 1000 nM. For the same compound, on CDK7/CycH/MNAT1, the inhibition (usually the relative decrease from the control value, in per cent) at 10 µM is 88% and the IC50 – broadly, the concentration that gives 50% inhibition – is 300 to 1000 nM.
The like results for `C=CC(=O)N1CCC1C(=O)Nc1cccc(CNc2nc(NC3CCOCC3)nc3c(C(C)C)cnn23)c1` (stereo not drawn) [Compound 2, 1-acryloyl-N-(3-(((8-isopropyl-2-((tetrahydro-2H-pyran-4-yl)amino)pyrazolo[1,5-a][1,3,5]triazin-4-yl)amino)methyl)phenyl)azetidine-2-carboxamide] were, in that order, at most 1000 nM, 98% and below 300 nM.
The like results for `C=CC(=O)N1CCCC1C(=O)Nc1cccc(CNc2nc(NC3CCOCC3)nc3c(C(C)C)cnn23)c1` (stereo not drawn) [Compound 3, 1-acryloyl-N-(3-(((8-isopropyl-2-((tetrahydro-2H-pyran-4-yl)amino)pyrazolo[1,5-a][1,3,5]triazin-4-yl)amino)methyl)phenyl)pyrrolidine-2-carboxamide] were, in that order, at most 1000 nM, 96% and below 300 nM.
The like results for `C=CC(=O)N1CCC(C(=O)Nc2cccc(CNc3nc(NC4CCOCC4)nc4c(C(C)C)cnn34)c2)C1` (stereo not drawn) [Compound 4, 1-acryloyl-N-(3-(((8-isopropyl-2-((tetrahydro-2H-pyran-4-yl)amino)pyrazolo[1,5-a][1,3,5]triazin-4-yl)amino)methyl)phenyl)pyrrolidine-3-carboxamide] were, in that order, at most 1000 nM, 93% and below 300 nM.
Regarding `C=CC(=O)N1CCCC(C(=O)Nc2cccc(CNc3nc(NC4CCN(C)CC4)nc4c(C(C)C)cnn34)c2)C1` (stereo not drawn) [Compound 8, 1-acryloyl-N-(3-(((8-isopropyl-2-((1-methylpiperidin-4-yl)amino)pyrazolo[1,5-a][1,3,5]triazin-4-yl)amino)methyl)phenyl)piperidine-3-carboxamide], the EC50 in test [1] was at most 1000 nM. Further, on CDK7/CycH/MNAT1, the inhibition at 10 µM was determined as 96% and the half-inhibitory concentration (IC50) is below 300 nM.
The like results for `C=CC(=O)N1CCC(C(=O)Nc2cccc(CNc3nc(N[C@@H]4CCNC[C@H]4F)nc4c(C(C)C)cnn34)c2)C1` (stereo partly drawn) [Compound 14, 1-acryloyl-N-(3-(((2-(((3R,4R)-3-fluoropiperidin-4-yl)amino)-8-isopropylpyrazolo[1,5-a][1,3,5]triazin-4-yl)amino)methyl)phenyl)pyrrolidine-3-carboxamide] were, in that order, 1000 to 10000 nM, 97% and below 300 nM.
With `C=CC(=O)N1CCC(C(=O)Nc2cccc(CNc3nc(NC4CCCC(N)C4)nc4c(C(C)C)cnn34)c2)C1` (stereo not drawn) [Compound 15, 1-acryloyl-N-(3-(((2-((3-aminocyclohexyl)amino)-8-isopropylpyrazolo[1,5-a][1,3,5]triazin-4-yl)amino)methyl)phenyl)pyrrolidine-3-carboxamide], the EC50 in test [1] was above 10000 nM. In addition, at CDK7/CycH/MNAT1, the inhibition at 10 µM is 98% and the IC50 is below 300 nM.
The like results for `C=CC(=O)N1CC(C(=O)Nc2cccc(CNc3nc(NC4CCOCC4)nc4c(C(C)C)cnn34)c2)C1` [Compound 18, 1-acryloyl-N-(3-(((8-isopropyl-2-((tetrahydro-2H-pyran-4-yl)amino)pyrazolo[1,5-a][1,3,5]triazin-4-yl)amino)methyl)phenyl)azetidine-3-carboxamide] were, in that order, at most 1000 nM, 101% and below 300 nM.
The like results for `C=CC(=O)N1CC[C@H]1C(=O)Nc1cccc(CNc2nc(NC3CCOCC3)nc3c(C(C)C)cnn23)c1` [Compound 20, (S)-1-acryloyl-N-(3-(((8-isopropyl-2-((tetrahydro-2H-pyran-4-yl)amino)pyrazolo[1,5-a][1,3,5]triazin-4-yl)amino)methyl)phenyl)azetidine-2-carboxamide] were, in that order, at most 1000 nM, 100% and below 300 nM.
Take `C=CC(=O)N1CCCCC1C(=O)Nc1cccc(CNc2nc(NC3CCOCC3)nc3c(C(C)C)cnn23)c1` (stereo not drawn) [Compound 21, 1-acryloyl-N-(3-(((8-isopropyl-2-((tetrahydro-2H-pyran-4-yl)amino)pyrazolo[1,5-a][1,3,5]triazin-4-yl)amino)methyl)phenyl)piperidine-2-carboxamide]: the EC50 in test [1] was at most 1000 nM. For the same compound, at CDK7/CycH/MNAT1, the inhibition at 10 µM worked out at 96% and the IC50 is below 300 nM.
The like results for `C=CC(=O)N1CCOCC1C(=O)Nc1cccc(CNc2nc(NC3CCOCC3)nc3c(C(C)C)cnn23)c1` (stereo not drawn) [Compound 24, 4-acryloyl-N-(3-(((8-isopropyl-2-((tetrahydro-2H-pyran-4-yl)amino)pyrazolo[1,5-a][1,3,5]triazin-4-yl)amino)methyl)phenyl)morpholine-3-carboxamide] were, in that order, at most 1000 nM, 98% and below 300 nM.
The like results for `C=CC(=O)N1CCC(C(=O)Nc2ccc(F)c(CNc3nc(NC4CCOCC4)nc4c(C(C)C)cnn34)c2)C1` (stereo not drawn) [Compound 32, 1-acryloyl-N-(4-fluoro-3-(((8-isopropyl-2-((tetrahydro-2H-pyran-4-yl)amino)pyrazolo[1,5-a][1,3,5]triazin-4-yl)amino)methyl)phenyl)pyrrolidine-3-carboxamide] were, in that order, 1000 to 10000 nM, 91% and below 300 nM.
The like results for `C=CC(=O)N[C@H]1CC[C@@H](C(=O)Nc2cccc(CNc3nc(NC4CCOCC4)nc4c(C(C)C)cnn34)c2F)CC1` [Compound 38, (1,4-cis)-4-acrylamido-N-(2-fluoro-3-(((8-isopropyl-2-((tetrahydro-2H-pyran-4-yl)amino)pyrazolo[1,5-a][1,3,5]triazin-4-yl)amino)methyl)phenyl)cyclohexane-1-carboxamide] were, in that order, 1000 to 10000 nM, 95% and below 300 nM.
Consider `CC(C)c1cnn2c(NCc3cccc(NC(=O)C4CCN(C(=O)/C=C/CN(C)C)C4)c3)nc(NC3CCOCC3)nc12` (stereo not drawn) [Compound 69, (E)-1-(4-(dimethylamino)but-2-enoyl)-N-(3-(((8-isopropyl-2-((tetrahydro-2H-pyran-4-yl)amino)pyrazolo[1,5-a][1,3,5]triazin-4-yl)amino)methyl)phenyl)pyrrolidine-3-carboxamide], for which, in test [1], the EC50 was in the range of 1000 to 10000 nM. Also, on CDK7/CycH/MNAT1, the inhibition at 10 µM came to 98% and the IC50 is below 300 nM.
In test [1], `C=CS(=O)(=O)N1CCCCC1C(=O)Nc1cccc(CNc2nc(NC3CCOCC3)nc3c(C(C)C)cnn23)c1` (stereo not drawn) [Compound 78, N-(3-(((8-isopropyl-2-((tetrahydro-2H-pyran-4-yl)amino)pyrazolo [1,5-a][1,3,5]triazin-4-yl)amino)methyl)phenyl)-1-(vinylsulfonyl)piperidine-2-carboxamide] gave a half-maximal effective concentration (EC50) of at most 1000 nM. Also, at CDK7/CycH/MNAT1, the inhibition at 10 µM was 100% and the IC50 is below 300 nM.
The like results for `C=CC(=O)NC1(C(=O)Nc2cccc(CNc3nc(NC4CCOCC4)nc4c(C(C)C)cnn34)c2)CC1` [Compound 83, 1-acrylamido-N-(3-(((8-isopropyl-2-((tetrahydro-2H-pyran-4-yl)amino)pyrazolo[1,5-a][1,3,5]triazin-4-yl)amino)methyl)phenyl)cyclopropane-1-carboxamide] were, in that order, at most 1000 nM, 96% and below 300 nM.
The like results for `C=CC(=O)Nc1cn(C)nc1C(=O)Nc1cccc(CNc2nc(NC3CCOCC3)nc3c(C(C)C)cnn23)c1` [Compound 85, 4-acrylamido-N-(3-(((8-isopropyl-2-((tetrahydro-2H-pyran-4-yl)amino)pyrazolo[1,5-a][1,3,5]triazin-4-yl)amino)methyl)phenyl)-1-methyl-1H-pyrazole-3-carboxamide] were, in that order, 1000 to 10000 nM, 99% and below 300 nM.
The like results for `C=CC(=O)N1CCC(C(=O)Nc2cccc(CNc3nc(OC4CCN(C)CC4)nc4c(CC)cnn34)c2)CC1` [Compound 88, 1-acryloyl-N-(3-(((8-ethyl-2-((1-methylpiperidin-4-yl)oxy)pyrazolo [1,5-a][1,3,5]triazin-4-yl)amino)methyl)phenyl)piperidine-4-carboxamide] were, in that order, 1000 to 10000 nM, 97% and below 300 nM.
